Like-named read-outs stand apart in the source and are kept apart here.
Target: T1, Recombinant human cathepsin A (Homo sapiens, UniProt P10619)
T1 construct: Recombinant human cathepsin A (residues 29-480, with a C-terminal 10-His tag); 10-His (C); purchased R&D Systems 1049-SE
T1 sequence (P10619 29-312 limits assumed): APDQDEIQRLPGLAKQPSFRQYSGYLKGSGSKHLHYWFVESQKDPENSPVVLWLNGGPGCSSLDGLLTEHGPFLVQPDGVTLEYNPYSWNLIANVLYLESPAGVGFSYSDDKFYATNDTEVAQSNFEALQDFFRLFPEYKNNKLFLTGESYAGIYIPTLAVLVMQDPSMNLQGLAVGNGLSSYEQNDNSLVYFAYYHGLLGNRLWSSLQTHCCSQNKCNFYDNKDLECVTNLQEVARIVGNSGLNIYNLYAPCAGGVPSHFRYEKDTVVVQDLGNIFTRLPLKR
T1 sequence (P10619 327-480 limits assumed): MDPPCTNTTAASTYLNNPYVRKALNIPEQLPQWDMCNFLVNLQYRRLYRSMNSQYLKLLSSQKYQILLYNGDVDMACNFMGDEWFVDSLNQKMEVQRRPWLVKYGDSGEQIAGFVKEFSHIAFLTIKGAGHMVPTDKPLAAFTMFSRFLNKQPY
Test: Cathepsin A inhibitory activity
Format: biochemical
Summary of the method: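 Human cathepsin A (res. 29-480, C-His10) pre-activated with cathepsin L (MES pH 6.0, DTT, 15 min, 37 °C; quenched with 10 μM E-64). Enzyme (833 ng/ml) preincubated 15 min RT with compound in MES pH 5.5/DTT, then 2 μM Bodipy FL-bradykinin for 15 min RT. Capillary electrophoresis product/substrate peak areas; IC50 from % inhibition.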

[1] = recombinant human cathepsin A, read-out: Activity (2): Cathepsin A inhibitory activity, IC50 class
[2] = recombinant human cathepsin A 833 ng/ml, Bodipy FL-labeled bradykinin 2 μM, pH 5.5, read-out: CATH-A IC50

With `O=C(O)CC(NC(=O)c1cc(O)n(-c2cccc(F)c2)n1)c1cc(Cl)ccc1Cl` (centres unmarked) [Example 488] the IC50 [1] was 100 to 1000 nM.

`Cc1ccc([C@H](CC(=O)O)NC(=O)c2cc(O)n(-c3cccc(F)c3)n2)cc1` [Example 489] was tested, and the IC50 [1] was 100 to 1000 nM.

For `CN(C)c1ccc(C(CC(=O)O)NC(=O)c2cc(O)n(-c3ccc(F)cc3)n2)c(Cl)c1` (centres unmarked) [Example 490], the IC50 [1] was 1000 to 30000 nM.

`O=C(O)CC(NC(=O)c1cc(O)n(-c2ccc(F)cc2)n1)c1cccc2c1OC(F)(F)O2` (centres unmarked) [Example 491] was tested, and the IC50 [1] was 100 to 1000 nM.

`Cc1ccc(F)cc1C(CC(=O)O)NC(=O)c1cc(O)n(-c2ccc(F)cc2)n1` (centres unmarked) [Example 492, 3-(5-Fluoro-2-methyl-phenyl)-3-{[1-(4-fluoro-phenyl)-5-hydroxy-1H-pyrazole-3-carbonyl]-amino}-propionic acid] showed an IC50 [2] of 175 nM and an IC50 [1] of 100 to 1000 nM.

`O=C(O)CC(NC(=O)c1cc(O)n(-c2ccc(F)cc2)n1)c1cc(Cl)ccc1Cl` (centres unmarked) [Example 493, 3-(2,5-Dichloro-phenyl)-3-{[1-(4-fluoro-phenyl)-5-hydroxy-1H-pyrazole-3-carbonyl]-amino}-propionic acid] gave an IC50 [2] of 246 nM and an IC50 [1] of 100 to 1000 nM.

Molecule `Cc1c(F)cccc1C(CC(=O)O)NC(=O)c1cc(O)n(-c2ccccc2)n1` (centres unmarked) [Example 494, 3-(3-Fluoro-2-methyl-phenyl)-3-[(5-hydroxy-1-phenyl-1H-pyrazole-3-carbonyl)-amino]-propionic acid] has an IC50 [2] of 142 nM and an IC50 [1] of 100 to 1000 nM.

For `O=C(O)CC(NC(=O)c1cc(O)n(-c2ccccc2)n1)c1cc(F)ccc1Cl` (centres unmarked) [Example 495, 3-(2-Chloro-5-fluoro-phenyl)-3-[(5-hydroxy-1-phenyl-1H-pyrazole-3-carbonyl)-amino]-propionic acid], the IC50 [2] was 213 nM and the IC50 [1] was 100 to 1000 nM.

With `O=C(O)CC(NC(=O)c1cc(O)n(-c2ccccc2)n1)c1cccc2c1OC(F)(F)O2` (centres unmarked) [Example 496, 3-(2,2-Difluoro-benzo[1,3]dioxol-4-yl)-3-[(5-hydroxy-1-phenyl-1H-pyrazole-3-carbonyl)-amino]-propionic acid] the IC50 [2] was 167 nM and the IC50 [1] was 100 to 1000 nM.

Work on `Cc1ccc(F)cc1C(CC(=O)O)NC(=O)c1cc(O)n(-c2ccccc2)n1` (centres unmarked) [Example 497, 3-(5-Fluoro-2-methyl-phenyl)-3-[(5-hydroxy-1-phenyl-1H-pyrazole-3-carbonyl)-amino]-propionic acid] yielded an IC50 [2] of 145 nM and an IC50 [1] of 100 to 1000 nM.

With `COc1ccc(F)cc1C(CC(=O)O)NC(=O)c1cc(O)n(-c2ccccc2)n1` (centres unmarked) [Example 498, 3-(5-Fluoro-2-methoxy-phenyl)-3-[(5-hydroxy-1-phenyl-1H-pyrazole-3-carbonyl)-amino]-propionic acid] the IC50 [2] was 143 nM and the IC50 [1] was 100 to 1000 nM.

`O=C(O)CC(NC(=O)c1cc(O)n(-c2ccccc2)n1)c1ccc(-c2ccccn2)cc1` (centres unmarked) [Example 499, 3-[(5-Hydroxy-1-phenyl-1H-pyrazole-3-carbonyl)-amino]-3-(4-pyridin-2-yl-phenyl)-propionic acid; compound with trifluoro-acetic acid] was tested, and the IC50 [2] was 147 nM and the IC50 [1] was 100 to 1000 nM.

`O=C(O)CC(NC(=O)c1cc(O)n(-c2ccc(F)cc2F)n1)c1cc(Cl)ccc1Cl` (centres unmarked) [Example 500, 3-(2,5-Dichloro-phenyl)-3-{[1-(2,4-difluoro-phenyl)-5-hydroxy-1H-pyrazole-3-carbonyl]-amino}-propionic acid] was tested, and the IC50 [2] was 86.3 nM and the IC50 [1] was under 100 nM.

For `O=C(O)CC(NC(=O)c1cc(O)n(-c2ccc(F)cc2F)n1)c1ccc(-c2ccccn2)cc1` (centres unmarked) [Example 501], the IC50 [1] was under 100 nM.

For `O=C(O)C[C@H](NC(=O)c1cc(O)n(-c2ccc(F)cc2F)n1)c1ccccc1Cl` [Example 502, (S)-3-(2-Chloro-phenyl)-3-{[1-(2,4-difluoro-phenyl)-5-hydroxy-1H-pyrazole-3-carbonyl]-amino}-propionic acid], the IC50 [2] was 116 nM and the IC50 [1] was 100 to 1000 nM.

With `O=C(O)CC(NC(=O)c1cc(O)n(-c2ccccc2Cl)n1)c1cccc2c1OC(F)(F)O2` (centres unmarked) [Example 503, 3-{[1-(2-Chloro-phenyl)-5-hydroxy-1H-pyrazole-3-carbonyl]-amino}-3-(2,2-difluoro-benzo[1,3]dioxol-4-yl)-propionic acid] the IC50 [2] was 391 nM and the IC50 [1] was 100 to 1000 nM.

For `COc1ccc(F)cc1C(CC(=O)O)NC(=O)c1cc(O)n(-c2ccccc2Cl)n1` (centres unmarked) [Example 504, 3-{[1-(2-Chloro-phenyl)-5-hydroxy-1H-pyrazole-3-carbonyl]-amino}-3-(5-fluoro-2-methoxy-phenyl)-propionic acid], the IC50 [2] was 123 nM and the IC50 [1] was 100 to 1000 nM.

In the case of `O=C(O)CC(NC(=O)c1cc(O)n(-c2ccccc2Cl)n1)c1ccc(N2CCOCC2)cc1` (centres unmarked) [Example 505, 3-{[1-(2-Chloro-phenyl)-5-hydroxy-1H-pyrazole-3-carbonyl]-amino}-3-(4-morpholin-4-yl-phenyl)-propionic acid], the IC50 [2] is reported as 29800 nM and the IC50 [1] is reported as 1000 to 30000 nM.

`O=C(O)CC(NC(=O)c1cc(O)n(-c2ccccc2Cl)n1)c1ccc(-c2ccccn2)cc1` (centres unmarked) [Example 506, 3-{[1-(2-Chloro-phenyl)-5-hydroxy-1H-pyrazole-3-carbonyl]-amino}-3-(4-pyridin-2-yl-phenyl)-propionic acid] gave an IC50 [2] of 52.4 nM and an IC50 [1] of under 100 nM.

`O=C(O)C[C@H](NC(=O)c1cc(O)n(-c2ccccc2Cl)n1)c1ccccc1Cl` [Example 507, (S)-3-(2-Chloro-phenyl)-3-{[1-(2-chloro-phenyl)-5-hydroxy-1H-pyrazole-3-carbonyl]-amino}-propionic acid] gave an IC50 [2] of 161 nM and an IC50 [1] of 100 to 1000 nM.

For `Cc1c(F)cccc1C(CC(=O)O)NC(=O)c1cc(O)n(-c2cccc(Cl)c2)n1` (centres unmarked) [Example 508, 3-{[1-(3-Chloro-phenyl)-5-hydroxy-1H-pyrazole-3-carbonyl]-amino}-3-(3-fluoro-2-methyl-phenyl)-propionic acid], the IC50 [2] was 137 nM and the IC50 [1] was 100 to 1000 nM.

Molecule `O=C(O)CC(NC(=O)c1cc(O)n(-c2cccc(Cl)c2)n1)c1cc(F)ccc1Cl` (centres unmarked) [Example 509, 3-(2-Chloro-5-fluoro-phenyl)-3-{[1-(3-chloro-phenyl)-5-hydroxy-1H-pyrazole-3-carbonyl]-amino}-propionic acid] has an IC50 [2] of 100 nM and an IC50 [1] of 100 to 1000 nM.

Molecule `Cc1ccc(F)cc1C(CC(=O)O)NC(=O)c1cc(O)n(-c2cccc(Cl)c2)n1` (centres unmarked) [Example 510, 3-{[1-(3-Chloro-phenyl)-5-hydroxy-1H-pyrazole-3-carbonyl]-amino}-3-(5-fluoro-2-methyl-phenyl)-propionic acid] has an IC50 [2] of 175 nM and an IC50 [1] of 100 to 1000 nM.

Molecule `O=C(O)CC(NC(=O)c1cc(O)n(-c2cccc(Cl)c2)n1)c1cc(Cl)ccc1Cl` (centres unmarked) [Example 511, 3-{[1-(3-Chloro-phenyl)-5-hydroxy-1H-pyrazole-3-carbonyl]-amino}-3-(2,5-dichloro-phenyl)-propionic acid] has an IC50 [2] of 102 nM and an IC50 [1] of 100 to 1000 nM.

Molecule `Cc1ccc([C@H](CC(=O)O)NC(=O)c2cc(O)n(-c3cccc(Cl)c3)n2)cc1` [Example 512, (S)-3-{[1-(3-Chloro-phenyl)-5-hydroxy-1H-pyrazole-3-carbonyl]-amino}-3-p-tolyl-propionic acid] has an IC50 [2] of 155 nM and an IC50 [1] of 100 to 1000 nM.

With `O=C(O)CC(NC(=O)c1cc(O)n(-c2cccc(Cl)c2)n1)c1ccc(-c2ccccn2)cc1` (centres unmarked) [Example 513, 3-{[1-(3-Chloro-phenyl)-5-hydroxy-1H-pyrazole-3-carbonyl]-amino}-3-(4-pyridin-2-yl-phenyl)-propionic acid] the IC50 [2] was 195 nM and the IC50 [1] was 100 to 1000 nM.

Molecule `O=C(O)C[C@H](NC(=O)c1cc(O)n(-c2cccc(Cl)c2)n1)c1ccccc1Cl` [Example 514, (S)-3-(2-Chloro-phenyl)-3-{[1-(3-chloro-phenyl)-5-hydroxy-1H-pyrazole-3-carbonyl]-amino}-propionic acid] has an IC50 [2] of 304 nM and an IC50 [1] of 100 to 1000 nM.

`O=C(O)CC(NC(=O)c1cc(O)n(-c2ccc(Cl)cc2)n1)c1ccc(-c2ccccn2)cc1` (centres unmarked) [Example 515, 3-{[1-(4-Chloro-phenyl)-5-hydroxy-1H-pyrazole-3-carbonyl]-amino}-3-(4-pyridin-2-yl-phenyl)-propionic acid] was tested, and the IC50 [2] was 238 nM and the IC50 [1] was 100 to 1000 nM.

`Cc1c(F)cccc1C(CC(=O)O)NC(=O)c1cc(O)n(-c2ccccc2F)n1` (centres unmarked) [Example 516, 3-(3-Fluoro-2-methyl-phenyl)-3-{[1-(2-fluoro-phenyl)-5-hydroxy-1H-pyrazole-3-carbonyl]-amino}-propionic acid] showed an IC50 [2] of 102 nM and an IC50 [1] of 100 to 1000 nM.

For `O=C(O)CC(NC(=O)c1cc(O)n(-c2ccccc2F)n1)c1cc(F)ccc1F` (centres unmarked) [Example 517], the IC50 [1] was 100 to 1000 nM.

In the case of `O=C(O)CC(NC(=O)c1cc(O)n(-c2ccccc2F)n1)c1ccc(N2CCOCC2)cc1` (centres unmarked) [Example 518], the IC50 [1] is reported as 1000 to 30000 nM.

`O=C(O)C[C@H](NC(=O)c1cc(O)n(-c2ccccc2F)n1)c1ccccc1Cl` [Example 519] was tested, and the IC50 [1] was 100 to 1000 nM.

`COc1ccc(F)cc1C(CC(=O)O)NC(=O)c1cc(O)n(-c2cccc(F)c2)n1` (centres unmarked) [Example 520] gave an IC50 [1] of 100 to 1000 nM.

For `O=C(O)CC(NC(=O)c1cc(O)n(-c2cccc(F)c2)n1)c1ccc(-c2ccccn2)cc1` (centres unmarked) [Example 521], the IC50 [1] was 100 to 1000 nM.

`O=C(O)C[C@H](NC(=O)c1cc(O)n(-c2cccc(F)c2)n1)c1ccccc1Cl` [Example 522] gave an IC50 [1] of 100 to 1000 nM.

Reference: patent US8664257B2, “Oxygen-substituted 3-heteroaroylamino-propionic acid derivatives and their use as pharmaceuticals” (Sanofi, priority 2010, dated 2014)
